Like-named read-outs stand apart in the source and are kept apart here.
Target: T1, tankyrase 1 (Homo sapiens, UniProt O95271)
T1 construct: purchased Trevigen 4700-096-K
T1 sequence (O95271 1-1327): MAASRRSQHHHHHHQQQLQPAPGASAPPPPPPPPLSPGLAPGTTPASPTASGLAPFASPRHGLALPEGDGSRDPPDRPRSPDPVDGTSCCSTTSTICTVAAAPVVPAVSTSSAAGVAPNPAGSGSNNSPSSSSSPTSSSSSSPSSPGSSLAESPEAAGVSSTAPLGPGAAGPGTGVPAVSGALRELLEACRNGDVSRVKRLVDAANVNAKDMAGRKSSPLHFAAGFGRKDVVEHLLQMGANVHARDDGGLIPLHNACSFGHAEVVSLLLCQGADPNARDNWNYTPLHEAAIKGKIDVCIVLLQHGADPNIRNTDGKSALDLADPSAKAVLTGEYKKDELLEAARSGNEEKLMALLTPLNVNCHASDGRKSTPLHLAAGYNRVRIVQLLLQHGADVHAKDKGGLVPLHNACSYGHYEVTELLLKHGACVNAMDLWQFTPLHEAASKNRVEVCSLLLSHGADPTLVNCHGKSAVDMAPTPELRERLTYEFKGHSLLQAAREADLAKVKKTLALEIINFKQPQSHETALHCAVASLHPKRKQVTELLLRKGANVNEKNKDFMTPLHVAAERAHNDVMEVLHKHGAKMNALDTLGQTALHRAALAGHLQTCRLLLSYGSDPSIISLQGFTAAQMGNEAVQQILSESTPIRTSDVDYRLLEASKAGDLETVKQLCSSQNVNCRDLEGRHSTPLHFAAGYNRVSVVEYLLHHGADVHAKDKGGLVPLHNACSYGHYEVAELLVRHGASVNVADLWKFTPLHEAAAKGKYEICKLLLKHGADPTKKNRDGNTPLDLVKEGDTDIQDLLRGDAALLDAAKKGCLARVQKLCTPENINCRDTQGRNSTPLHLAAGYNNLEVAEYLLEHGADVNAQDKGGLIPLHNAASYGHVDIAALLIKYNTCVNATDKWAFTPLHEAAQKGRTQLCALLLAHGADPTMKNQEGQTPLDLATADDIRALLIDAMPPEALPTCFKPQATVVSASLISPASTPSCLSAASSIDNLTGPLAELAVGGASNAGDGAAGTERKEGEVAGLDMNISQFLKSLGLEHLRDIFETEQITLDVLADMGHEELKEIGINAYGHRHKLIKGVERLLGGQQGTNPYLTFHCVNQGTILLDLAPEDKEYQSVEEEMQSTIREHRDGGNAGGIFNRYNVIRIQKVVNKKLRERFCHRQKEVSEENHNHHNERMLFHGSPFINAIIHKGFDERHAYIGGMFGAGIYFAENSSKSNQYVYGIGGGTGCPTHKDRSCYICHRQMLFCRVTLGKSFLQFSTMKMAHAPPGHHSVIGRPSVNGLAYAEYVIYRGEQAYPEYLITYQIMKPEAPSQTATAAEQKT
Experiment: Analysis of activity of tankyrase 1 (Trevigen kit, ELISA absorbance at 450 nm)
Type: biochemical
Protocol: Activities of novel compounds synthesized according to Examples 1 to 13 against tankyrase 1 were analyzed using a Trevigen kit (Cat. No. 4700-096-K). Poly PAR histone protein-coated 96-well plate, anti-PAR monoclonal antibody and goat anti-mouse IgG-HRP were used for measurement of absorbance by ELISA method. Specifically, 20×I-PAR assay buffer was diluted to 1× by adding water, and 50 μL of the diluted buffer was added to each well of the 96-well plate followed by reacting at rt for 30 min. Then, the supernatant was completely removed from each well and 10 μL of 1×I-PAR assay buffer and 15 μL of assay substrate were added to each well along with 1 μL of a 50× solution of inhibitors to be tested, which were the compounds obtained in the Examples 1 to 13. 10 mUnits/μL of tankyrase 1 enzyme was diluted 50-fold with 1×I-PAR assay buffer and 25 μL of the diluted enzyme was added to each well and reacted while stirring at rt for 30 min. One without any compound of the present invention was used as a positive control and another containing 1×I-PAR assay buffer with the same volume instead of tankyrase 1 enzyme was used as a negative control.
Upon completion of the reaction, 200 μL of PBSX, which was prepared by adding 0.1% triton X-100 to PBS, was added and removed and this washing process was repeated twice. Washing was repeated twice more using PBS in the same manner. 5× antibody diluent was diluted with distilled water to 1× concentration, 50 μL of the diluted goat anti-mouse IgG-HRP to 1/2000 was added to each well and reacted while stirring at rt for 30 min. Washes were carried out twice using PBSX and PBS, respectively. After adding 50 μL of TACS-sapphire to each well of the plate, the plate was blocked from light to react for 10 min to 15 min and the color of the reaction solution turned blue. To stop the reaction, 50 μL of 0.2N HCl was added to turn the solution yellow. Finally, the absorbance of the resulting solution was measured at 450 nm.

[1] = Trevigen kit Cat. No. 4700-096-K, reacted at rt for 30 min, absorbance at 450 nm, read-out: TNKS1 (IC50)

SMILES	IC50 [1]	IC50
O=c1[nH]c(N2CCN(c3c(F)cc(OCC(O)CO)cc3F)CC2)nc2c1COCC2 (stereo not shown) [Example 5, 2-(4-(4-(2,3-dihydroxypropoxy)-2,6-difluorophenyl)piperazin-1-yl)-7,8-dihydro-3H-pyrano[4,3-d]pyrimidin-4(5H)-one]	26.1 nM	–
O=C(COc1cc(F)c(N2CCN(c3nc4c(c(=O)[nH]3)COCC4)CC2)c(F)c1)N1CCCCC1 [Example 10, 2-(4-(2,6-difluoro-4-(2-oxo-2-(piperidin-1-yl)ethoxy)phenyl)piperazin-1-yl)-7,8-dihydro-3H-pyrano[4,3-d]pyrimidin-4(5H)-one]	34.2 nM	–
Cn1nnc(C2CCN(c3nc4c(c(=O)[nH]3)COCC4)CC2)n1 [Example 9, 2-(4-(2-methyl-2H-tetrazol-5-yl)piperidin-1-yl)-7,8-dihydro-3H-pyrano[4,3-d]pyrimidin-4(5H)-one]	803 nM	–
O=c1[nH]c(N2CCN(c3c(F)cc(OCCN4CCOCC4)cc3F)CC2)nc2c1COCC2 [Example 2, 2-(4-(2,6-difluoro-4-(2-morpholinoethoxy)phenyl)piperazin-1-yl)-7,8-dihydro-3H-pyrano[4,3-d]pyrimidin-4(5H)-one]	40.6 nM	–
CCN(CC)CCOc1cc(F)c(N2CCN(c3nc4c(c(=O)[nH]3)COCC4)CC2)c(F)c1 [Example 12, 2-(4-(4-(2-(diethylamino)ethoxy)-2,6-difluorophenyl)piperazin-1-yl)-7,8-dihydro-3H-pyrano[4,3-d]pyrimidin-4(5H)-one]	33.6 nM	–
CC(O)c1cc(F)c(N2CCN(c3nc4c(c(=O)[nH]3)COCC4)CC2)c(F)c1 (stereo not shown) [Example 7, 2-(4-(2,6-difluoro-4-(1-hydroxyethyl)phenyl)piperazin-1-yl)-7,8-dihydro-3H-pyrano[4,3-d]pyrimidin-4(5H)-one]	21.8 nM	–
O=c1[nH]c(N2CCN(c3c(F)cc(OCCN4CCCCC4)cc3F)CC2)nc2c1COCC2 [Example 3, 2-(4-(2,6-difluoro-4-(2-(piperidin-1-yl)ethoxy)phenyl)piperazin-1-yl)-7,8-dihydro-3H-pyrano[4,3-d]pyrimidin-4(5H)-one]	40.3 nM	–
COCCOc1cc(F)c(N2CCN(c3nc4c(c(=O)[nH]3)COCC4)CC2)c(F)c1 [Example 1, 2-(4-(2,6-difluoro-4-(2-methoxyethoxy)phenyl)piperazin-1-yl)-7,8-dihydro-3H-pyrano[4,3-d]pyrimidin-4(5H)-one]	–	27.2 nM
O=c1[nH]c(N2CCN(c3c(F)cc(OCCO)cc3F)CC2)nc2c1COCC2 [Example 4, 2-(4-(2,6-difluoro-4-(2-hydroxyethoxy)phenyl)piperazin-1-yl)-7,8-dihydro-3H-pyrano[4,3-d]pyrimidin-4(5H)-one]	26.6 nM	–
O=c1[nH]c(N2CCN(c3c(F)cc(OCCn4ccnc4)cc3F)CC2)nc2c1COCC2 [Example 13, 2-(4-(4-(2-(1H-imidazol-1-yl)ethoxy)-2,6-difluorophenyl)piperazin-1-yl)-7,8-dihydro-3H-pyrano[4,3-d]pyrimidin-4(5H)-one]	25.4 nM	–
CN1CCN(Cc2cc(F)c(N3CCN(c4nc5c(c(=O)[nH]4)COCC5)CC3)c(F)c2)CC1 [Example 6, 2-(4-(2,6-difluoro-4-((4-methylpiperazin-1-yl)methyl)phenyl)piperazin-1-yl)-7,8-dihydro-3H-pyrano[4,3-d]pyrimidin-4(5H)-one]	36.8 nM	–
COCCOc1cc(F)c(C2(O)CCN(c3nc4c(c(=O)[nH]3)COCC4)CC2)c(F)c1 [Example 8, 2-(4-(2,6-difluoro-4-(2-methoxyethoxy)phenyl)-4-hydroxypiperidin-1-yl)-7,8-dihydro-3H-pyrano[4,3-d]pyrimidin-4(5H)-one]	162 nM	–
COCCOc1cc(F)c(C2CCN(c3nc4c(c(=O)[nH]3)COCC4)CC2)c(F)c1 [Example 11, 2-(4-(2,6-difluoro-4-(2-methoxyethoxy)phenyl)piperidin-1-yl)-7,8-dihydro-3H-pyrano[4,3-d]pyrimidin-4(5H)-one]	74.4 nM	–

— US10336765B2, “Dihydropyranopyrimidinone derivatives, and use thereof” (St Pharm Co., LTD, priority 2015, dated 2019)
